According to a melting point compilation (Tetko et al.; mined from patent text by program, amines drawn as free bases though some values may be those of a salt):

| Compound | melting point [°C] |
| --- | --- |
| COc1cn(C(C)=O)c2ccc(F)cc12 | 124 to 125 |
| COc1ccc(C2=NN(C3CCN(C(=O)CCCNC(=O)OC(C)(C)C)CC3)C(=O)[C@@H]3CC=CC[C@H]23)cc1OC | 79 to 83 |
| COc1cccc(SSc2cccc(OC)c2S(=O)(=O)NC(C)(C)C)c1S(=O)(=O)NC(C)(C)C | 275 |
| CC(O)C(C)Sc1sc(-c2cc[nH]n2)c2c1C(=O)CC(C)(C)C2 (stereo not drawn) | 171 to 174 |
| CC(C)(C)[Si](C)(C)Oc1ccc(NC(=O)CCl)cc1 | 107 to 108 |
| O=C(NCc1ccccc1)NCC(C(=O)O)C(F)(F)F (stereo not drawn) | 183 to 184 |
| CS(=O)(=O)CC(=O)N[C@H]1CC[C@H](CCN2CCN(c3nccc4c3OCC4)CC2)CC1 | 187 |
| CCOC(=O)C1(C(=O)Nc2ccc(Br)cc2C)CCC1 | 61 to 64 |
| CCOC(=O)c1scnc1Cl | 43 to 45 |
| C/C(=N\OC(=O)[C@@H]1CCCN(C(=O)OC(C)(C)C)C1)[C@H]1CC[C@H]2[C@@H]3CCC4=CC(=O)CC[C@]4(C)[C@H]3CC[C@]12C | 79 to 81 |
| O=C(O)CCCOc1ccc(OCCC(c2ccccc2)(c2ccccc2)c2ccccc2)cc1 | 138 to 139 |
| COc1ccc(CCCC2(Br)C(=O)NC(=O)NC2=O)cc1 | 113 to 114 |
| O=C1Cc2ccccc2N1CC(F)(F)F | 155 to 162 |
| Cc1nnc2c(-c3cccnc3)cccn12 | 112 to 115 |
| CCCC1COC(Cn2cncn2)(c2ccc(Oc3ccccc3)cc2)O1 (stereo not drawn) | 68.5 to 71 |
| CC(=O)NCc1ccc(C(C)(C)NC(=O)OCc2ccccc2)cc1 | 132 to 135 |
| CNc1c(F)cc2c(=O)c(C(=O)O)cn(-c3nc(N)c(F)cc3F)c2c1Cl | 251 to 253 |
| CC(C)CCN1C(=O)C(NC(=O)Oc2cccc(N(C)C)c2)C(=O)N(c2ccccc2)c2ccc(Cl)cc21 (stereo not drawn) | 199 to 200 |
| C=CCCC(C#N)(C#N)Cc1ccc(OCC=C)cc1 | 77.7 |

| Compound | melting point [°C] |
| --- | --- |
| Cc1cc(Br)ccc1C(=O)N=CN(C)C | 87 to 89 |
| O=c1[nH]c2ccccc2n1CCCN1CCC(c2noc3cccc(F)c23)CC1 | 174 to 175 |
| CCOC(=O)C(Cl)=Cc1cc([N+](=O)[O-])ccc1Cl | 91 |
| COc1cc(Cl)nc(S(C)(=O)=O)n1 | 68 to 74 |
| NC(=NO)c1ccc(C(=O)O)cn1 | > 300 |
| CCCn1c(CCOC)nc2c(N)nc3cc(OC4CCN(C(N)=O)CC4)ccc3c21 | 207 to 208 |
| Cc1c(-c2ccncc2)[nH]c2c1C(=O)CC(C)C2 (stereo not drawn) | 247 to 248 |
| CCOC(=O)c1cc([N+](=O)[O-])c(Cl)c(S(N)(=O)=O)c1 | 154 |
| Cc1c(Br)c2c(c(C)c1NC(=O)OC(C)(C)C)C(=O)C(C)(C)O2 | 131 to 132 |
| Cc1c(-c2ncc(Cl)cc2F)nn(C)c1C(N)=O | 201 to 204 |
| NC(=O)N1CCNC1=O | 200 |
| CSc1ccc(N)c(C(=O)NN)c1 | 124 to 127 |
| COc1ccc(S(=O)(=O)N2c3ccccc3-c3ccccc3C2c2ccccc2)cc1 (stereo not drawn) | 145 to 147 |
| COC(=O)C1=C(C)NC(CO)=C(C(=O)OC)C1c1ccccc1[N+](=O)[O-] (stereo not drawn) | 164 to 165 |
| O=C(Cl)c1ccccc1NC(=O)c1ccccc1-c1ccccc1 | 118 to 120 |
| Cc1c(C)c(-c2cccc(CO)c2)c(C)c(C)c1O | 152 to 153 |
| COC(=O)Cn1c(=O)c(=O)[nH]c2cc(C(F)(F)F)c(-n3cccc3)cc21 | 141 to 142 |
| Nc1nc2c(c(=O)[nH]1)n(CC(=O)c1ccc(Cl)cc1)c(=O)n2C1OC(CO)C(O)C1O (stereo not drawn) | > 230 |
| CCC(=O)c1cc(Cl)c(OC)cc1OC | 115 |

| Compound | melting point [°C] |
| --- | --- |
| O=C(NC1CCCCC1)C1=C(c2ccccc2)C(c2ccccc2)OC1=O (stereo not drawn) | 151 to 153 |
| CCCCn1c(=O)[nH]c2cccnc2c1=O | 200 to 210 |
| C=C1NC(=O)OC12CCN(Cc1ccccc1)CC2 | 169 to 170 |
| C=C(C(=O)c1ccccc1)c1cccnc1 | 113 to 114 |
| CCOC(=O)N1CCN(C(=O)C2CCC(=O)N2)CC1 (stereo not drawn) | 147 to 148 |
| CCCCCCC1=C(O)C(=O)CO1 | 51 to 52 |
| Cc1ccccc1OC(C)C(=O)OC1CC(O)C=C2C=CC(C)C(CCC3CC(O)CC(=O)O3)C21 (mixture of isomers) | 85 to 87 |
| Nc1nc2ccccc2c2c1nc(CCO)n2CC1(O)CCOCC1 | 237 to 238 |
| C=CCN1CCCN(c2c(C)cccc2Cl)C1=S | 82 to 84 |
| CN1C(c2ccncc2)CC(=O)CC1c1ccncc1 (stereo not drawn) | 103 to 106 |
| CC(C)(C)c1nc(C(O)CCC2CCNCC2)c2ccccc2n1 (stereo not drawn) | 110 |
| COCC(=O)Nc1cccc2c1C(=O)N(C1CCC(=O)NC1=O)C2=O (stereo not drawn) | 246 to 248 |
| CCCc1cn(C)cc(-c2cccc(C(F)(F)F)c2)c1=O | 45 to 47 |
| O=C1c2c(Cl)cccc2-n2cnc(-c3nc(C4CC4)no3)c2[C@@H]2CCN12 | 140 to 142 |
| NS(=O)(=O)c1cc2c(s1)SCCCC2=O | 185 to 186 |
| O=C(O)c1cc(O)c2c3c(cc(Br)c2n1)S(=O)c1ccccc1-3 (stereo not drawn) | 289 to 290 |
| Cn1c(=O)c2c(ncn2COC(=O)C(C)(C)C)n(C)c1=O | 108 to 110 |
| COc1ccc(C2(C#Cc3cnc(NC(C)=O)nc3)CCC(=O)CC2)cc1OC1CCCC1 | 170 to 171 |
| Brc1cccc(-c2ccccc2)n1 | 50 |

Next, values leading:

| melting point [°C] | Compound |
| --- | --- |
| 141 to 142 | COc1cc(C=O)ccc1OCc1cn(-c2ccccn2)nc1C |
| 204 to 206 | CC(=O)NC[C@H]1CN(c2ccc(N3CCC(=C(C#N)n4ccnc4C)CC3)c(F)c2)C(=O)O1 |
| 105 to 108 | CCOC(=O)c1ccc(NCCCCCCOc2ccccc2)cc1 |
| 122 to 123 | N#Cc1c(-c2ccc(Cl)cc2)c(-c2ccc(Cl)cc2)nn(CCO)c1=O |
| 152 to 154 | CC(C)(C)c1cc(-n2nc3ccc(S(=O)c4ccccc4)cc3n2)c(O)c(C(C)(C)C)c1 (stereo not drawn) |
| 197 to 200 | CN(Cc1ccc(NC(=O)C2=Cc3cc(-c4ccc(Cl)cc4)ccc3S(=O)(=O)CC2)cc1)C1CCC(=O)CC1 |
| 209 to 210 | CCCCc1nc(Cl)c(C(=O)O)n1Cc1ccc2oc(-c3ccccc3-c3nnn[nH]3)cc2c1 |
| 139 | CC(=O)Nc1ccc(C(=O)c2cc(-c3ccncc3)c(N3CCOCC3)s2)cc1 |
| 147 | CNC(=O)N(c1ccccc1)c1ncc(C)n1-c1ccccc1 |
| 171 to 174 | COC(=O)c1cccnc1C(=O)c1ccc(-n2ccnc2)cc1 |
| 154 to 156 | CCOc1c(Cl)ccc(-c2cc(N)c(Cl)c(C(=O)OC)n2)c1F |
| 180 to 181 | CCCCc1nc(Cl)c(CO)n1Cc1ccc(-c2cccc(C(=O)O)c2)cc1 |
| 206 to 209 | CC(CN1CCC(C#N)C1)NC(=O)c1c[nH]c2ncc(-c3nn(C)c4cc(Cl)ccc34)nc12 (stereo not drawn) |
| 134 to 135 | Cc1oc(-c2ccccc2)nc1CCOc1ccc(COc2ncccc2CC(=O)O)cc1 |
| 182 to 183 | CCOC(=O)c1c(CCc2ccc(O)cc2)oc2ccc(C#N)cc12 |
| 191 to 198 | CN(C)CC/C=C/c1ccc2c(Nc3ccc(Sc4nccn4C)c(Cl)c3)c(C#N)cnc2c1 |
| 215 to 217 | CCN(CC)CCNC(=O)c1c(I)ccc2c(=O)c3ccccc3[nH]c12 |
| 102 to 105 | CC(=O)c1ccc2c(c1)C(c1ccccn1)CC(C)(C)O2 (stereo not drawn) |
| 262 | C#CCOc1cccc(-c2nc3ncccc3[nH]2)c1OC |
| 130 | CC(C)(C)OC(=O)c1nc(-c2ccc(Cl)cc2Cl)n(-c2ccc(Cl)cc2)c1S(C)(=O)=O |
| 147 to 148 | CCCC(C)c1nn(-c2ccc(C(F)(F)F)cn2)cc1CCCOc1c(C)cccc1CC(=O)O (stereo not drawn) |

| melting point [°C] | Compound |
| --- | --- |
| 261 to 264 | Cn1c(=O)nc(-c2ccccc2)c2cc([N+](=O)[O-])ccc21 |
| 212 to 214 | COC(c1ccc(Cl)cc1)(c1ccc(NC(=O)c2cccc(I)c2C(=O)NC(C)C)c(C)c1)C(F)(F)F (stereo not drawn) |
| 188 | CC(=O)c1cccc(-c2ccc(Oc3ncccc3C(=O)O)cc2)c1 |
| 251 to 254 | CC(C)(C)c1cc(OCc2ccccc2C(=O)Nc2nnn[nH]2)cc(C(C)(C)C)c1 |
| 268 to 270 | CC(=O)N(C)c1cnc2ccc(Cl)cc2c1-c1ccccc1 |
| 88 to 91 | CC(C)(C)OC(=O)N1CCC(c2ccc(Nc3nc4c(-c5ccc(F)cc5)cccn4n3)cc2)CC1 |
| 235 to 236 | CC(=O)N1CCC(c2nc(-c3ccncc3)c(-c3ccc(F)cc3)[nH]2)CC1 |
| 150 | CN(C)CCC1(CO)c2ccccc2N(C)c2ccccc21 |
| 108 to 109 | Cc1c(NCc2ccccc2)cc2c(c1C)OCC2c1ccc(C(C)C)cc1 (stereo not drawn) |
| 160 to 162 | Cc1oc(-c2ccco2)nc1CCOc1ccc(CC2SC(=O)NC2=O)cn1 (stereo not drawn) |
| 50.8 to 54.4 | CC(C)N1Cc2ccccc2N(CCN2CCC(c3c[nH]c4cc(F)ccc34)C2)S1(=O)=O (stereo not drawn) |
| 87 to 88 | CCOc1nn(-c2ccc(C(F)(F)F)cn2)cc1CCCOc1c(CCC(=O)O)cccc1OC |
| 205 to 207 | O=C(NCc1cccc(OCCOc2nc[nH]n2)c1)c1nc2ccc(F)c(F)c2c(=O)[nH]1 |
| 205 | CCc1ccc(COc2ccc(CC(NC(=O)c3cc4cc(-c5ccc(Cl)cc5)ccc4s3)C(=O)O)cc2)cc1 (stereo not drawn) |
| 105 to 107 | CCOc1cc2nc(NC)nc(-c3cccc(-c4cncc(SC)c4)c3)c2cc1OCC |
| 198 to 203 | C#CCN(Cc1ccc2nc(C)[nH]c(=O)c2c1)c1ccc(C(=O)NCC(OC(C)=O)c2ccc([N+](=O)[O-])cc2)cc1 (stereo not drawn) |
| 127 to 128 | CCN(CC)CCC1CCCN1CCNC(=O)N1c2ccccc2C(=O)Nc2cccnc21 (stereo not drawn) |
| 162 to 163 | CC(C)n1nc(-c2c(-c3ccccc3)nn3ccc(OCCN4CCCC4=O)cc23)ccc1=O |
| 54 to 56 | Cn1c(=O)ccc2cc(COc3cc(F)cc(C4(SC(C)(C)C)CCOCC4)c3)ccc21 |
| 128 to 129 | COc1cc(C=O)ccc1OCc1nc(-c2ccccc2)cn1C |
